In article PMC11995724, “Antibiotic target discovery by integrated phenotypic and activity-based profiling of electrophilic fragments” (Cell chemical biology, 2025) one finds viability data, which are given here for 53 compounds.

SMILES strings stand for the structures.

As a reminder, the viability is a read-out of living cells in per cent, often relative to untreated cells.

A short description of this data set: in vitro. The following applies: human, hek293t cells.
Regarding `C=CC(=O)NC1c2cccc(F)c2CCC1C` (centres unmarked) [1-B21, N-(5-fluoro-2-methyl-1,2,3,4-tetrahydronaphthalen-1-yl)prop-2-enamide], the viability at 48 h, 25 µM stood at 92.8%. For the compound `C=CC(=O)NC(Cc1nc(C)no1)c1ccccc1` (centres unmarked) [1-B22, N-[2-(3-methyl-1,2,4-oxadiazol-5-yl)-1-phenylethyl]prop-2-enamide], the viability at 48 h, 25 µM was 68.5%. In the case of `C=CC(=O)NCC1SCCS1` [1-C03, N-[(1,3-dithiolan-2-yl)methyl]prop-2-enamide], the viability at 48 h, 25 µM came out at 87.6%. The result for `C=CC(=O)Nc1ccc(OC)cc1S(C)(=O)=O` [1-C04, N-(2-methanesulfonyl-4-methoxyphenyl)prop-2-enamide] reads 65.8%; that for `C=CC(=O)NC(CO)c1nc(C)no1` (centres unmarked) [1-C05, N-[2-hydroxy-1-(3-methyl-1,2,4-oxadiazol-5-yl)ethyl]prop-2-enamide], 71.4%; that for `C=CC(=O)N1CCC(C(=O)N2CCc3ccc([N+](=O)[O-])cc32)CC1` [1-C06, 1-[4-(6-nitro-2,3-dihydro-1H-indole-1-carbonyl)piperidin-1-yl]prop-2-en-1-one], 49.9%.

Consider `C=CC(=O)NCc1coc(-c2cccs2)n1` [1-C07, N-{[2-(thiophen-2-yl)-1,3-oxazol-4-yl]methyl}prop-2-enamide], for which the viability at 48 h, 25 µM stood at 70.1%. The result for `C=CC(=O)NCc1c(C)nc2ccccn12` [1-C08, N-({2-methylimidazo[1,2-a]pyridin-3-yl}methyl)prop-2-enamide] reads 82.8%; that for `C=CC(=O)NCc1ccnc(N2CCOCC2)c1` [1-C09, N-{[2-(morpholin-4-yl)pyridin-4-yl]methyl}prop-2-enamide], 70.7%. Turning to `C=CC(=O)NCc1ccc(F)c(F)c1` [1-C10, N-[(3,4-difluorophenyl)methyl]prop-2-enamide], the viability at 48 h, 25 µM amounted to 49.1%. For the compound `C=CC(=O)Nc1c2c(cc3c1CCC3)CCC2` [1-C11, N-(1,2,3,5,6,7-hexahydro-s-indacen-4-yl)prop-2-enamide], the viability at 48 h, 25 µM was 45.8%.

In the case of `C=CC(=O)N1CCCCC1` [1-C12, 1-(piperidin-1-yl)prop-2-en-1-one], the viability at 48 h, 25 µM was 98.4%. As for `C=CC(=O)NCc1cnc(-c2ccc(C(F)(F)F)cc2)s1` [1-C13, N-({2-[4-(trifluoromethyl)phenyl]-1,3-thiazol-5-yl}methyl)prop-2-enamide], the viability at 48 h, 25 µM worked out at 75.8%. As to `C=CC(=O)NC1CCN(c2ccc(Cl)c(Cl)c2)C1` (centres unmarked) [1-C14, N-[1-(3,4-dichlorophenyl)pyrrolidin-3-yl]prop-2-enamide], the viability at 48 h, 25 µM is 52.9%. As to `C=CC(=O)N(C)Cc1c(C)nn(C)c1Cl` [1-C15, N-[(5-chloro-1,3-dimethyl-1H-pyrazol-4-yl)methyl]-N-methylprop-2-enamide], the viability at 48 h, 25 µM came to 86.1%. As to `C=CC(=O)Nc1ccc(F)cc1C(C)(F)F` [1-C16, N-[2-(1,1-difluoroethyl)-4-fluorophenyl]prop-2-enamide], the viability at 48 h, 25 µM is 137%.

On to `C=CC(=O)Nc1cc(NC(=O)C2CC3CCC2CC3)ccc1F` (centres unmarked) [1-C17, N-[4-fluoro-3-(prop-2-enamido)phenyl]bicyclo[2.2.2]octane-2-carboxamide], for which the viability at 48 h, 25 µM was found to be 2.94%. As to `C=CC(=O)N1CCC(n2cc(C(N)=O)nn2)C1` (centres unmarked) [1-C18, 1-[1-(prop-2-enoyl)pyrrolidin-3-yl]-1H-1,2,3-triazole-4-carboxamide], the viability at 48 h, 25 µM turned out to be 79.6%. Regarding `C=CC(=O)Nc1ccc2c(c1)N(CC#N)CC2` [1-C19, N-[1-(cyanomethyl)-2,3-dihydro-1H-indol-6-yl]prop-2-enamide], the viability at 48 h, 25 µM stood at 94.7%. The result for `C=CC(=O)Nc1ccc(OCCC)c(C)c1` [1-C20, N-(3-methyl-4-propoxyphenyl)prop-2-enamide] reads 80.1%; that for `C=CC(=O)Nc1ccc(C(C)Sc2ccccc2)cc1` (centres unmarked) [1-C21, N-{4-[1-(phenylsulfanyl)ethyl]phenyl}prop-2-enamide], 69.7%; that for `C=CC(=O)Nc1ccc2c(c1)SCC(=O)N2` [1-C22, N-(3-oxo-3,4-dihydro-2H-1,4-benzothiazin-7-yl)prop-2-enamide], 109%. With `C=CC(=O)N(C[C@H]1CCCO1)C1CCC(CC)CC1` (stereo partly drawn) [1-D03, N-(4-ethylcyclohexyl)-N-{[(2R)-oxolan-2-yl]methyl}prop-2-enamide], the viability at 48 h, 25 µM is 94.6%. For `C=CC(=O)N(Cc1cccc2ccoc12)C1CCSCC1` [1-D04, N-[(1-benzofuran-7-yl)methyl]-N-(thian-4-yl)prop-2-enamide], the viability at 48 h, 25 µM worked out at 70.4%. The result for `C=CC(=O)NC1CCOc2c(F)cccc21` (centres unmarked) [1-D05, N-(8-fluoro-3,4-dihydro-2H-1-benzopyran-4-yl)prop-2-enamide] reads 99.1%. Turning to `C=CC(=O)NC1COCC1C` (centres unmarked) [1-D06, N-(4-methyloxolan-3-yl)prop-2-enamide], the viability at 48 h, 25 µM turned out to be 77.2%. The result for `C=CC(=O)N1CCCC(c2nn(C)cc2C(N)=O)C1` (centres unmarked) [1-D07, 1-methyl-3-[1-(prop-2-enoyl)piperidin-3-yl]-1H-pyrazole-4-carboxamide] reads 107%; that for `C=CC(=O)Nc1nc(-c2cccs2)cs1` [1-D08, N-[4-(thiophen-2-yl)-1,3-thiazol-2-yl]prop-2-enamide], 1.21%.

Turning to `C=CC(=O)N1CCCC(n2ccnn2)C1` (centres unmarked) [1-D09, 1-[3-(1H-1,2,3-triazol-1-yl)piperidin-1-yl]prop-2-en-1-one], the viability at 48 h, 25 µM came to 93.6%.

Take `C=CC(=O)NC1CC(C2CCCCC2)C1` (centres unmarked) [1-D10, N-(3-cyclohexylcyclobutyl)prop-2-enamide]: the viability at 48 h, 25 µM came to 75.7%. The value for `C=CC(=O)N(Cc1ccc(F)cn1)c1cnn(C2CCCC2)c1C` [1-D11, N-(1-cyclopentyl-5-methyl-1H-pyrazol-4-yl)-N-[(5-fluoropyridin-2-yl)methyl]prop-2-enamide] was 97.3%. For `C=CC(=O)Nc1ccc(N2CCN(CC)CC2)cc1` [1-D12, N-[4-(4-ethylpiperazin-1-yl)phenyl]prop-2-enamide], the viability at 48 h, 25 µM was 77.2%.

As for `C=CC(=O)NCCc1csc(C)n1` [1-D13, N-[2-(2-methyl-1,3-thiazol-4-yl)ethyl]prop-2-enamide], the viability at 48 h, 25 µM was found to be 106%.

In the case of `C=CC(=O)N1CCC(F)CC1` [1-D14, 1-(4-fluoropiperidin-1-yl)prop-2-en-1-one], the viability at 48 h, 25 µM worked out at 69.9%. As for `C=CC(=O)N(Cc1cnc(C2CC2)o1)C1CCCCC1C` (centres unmarked) [1-D15, N-[(2-cyclopropyl-1,3-oxazol-5-yl)methyl]-N-(2-methylcyclohexyl)prop-2-enamide], the viability at 48 h, 25 µM came to 118%. In the case of `C=CC(=O)NCC(=O)c1scc(C)c1Cl` [1-D16, N-[2-(3-chloro-4-methylthiophen-2-yl)-2-oxoethyl]prop-2-enamide], the viability at 48 h, 25 µM was found to be 65.2%. Consider `C=CC(=O)NCC1CCCCN1S(C)(=O)=O` (centres unmarked) [1-D17, N-[(1-methanesulfonylpiperidin-2-yl)methyl]prop-2-enamide], for which the viability at 48 h, 25 µM amounted to 161%. Turning to `C=CC(=O)N1CCn2c(nnc2C(F)(F)F)C1` [1-D18, 1-[3-(trifluoromethyl)-5H,6H,7H,8H-[1,2,4]triazolo[4,3-a]pyrazin-7-yl]prop-2-en-1-one], the viability at 48 h, 25 µM was 66.6%. The value for `C=CC(=O)N1CCC(S(=O)(=O)NC(C)C)C1` (centres unmarked) [1-D19, 1-(prop-2-enoyl)-N-(propan-2-yl)pyrrolidine-3-sulfonamide] was 218%; that for `C=CC(=O)Nc1ccc(-c2nc3cc(C)ccc3o2)cc1` [1-D20, N-[4-(5-methyl-1,3-benzoxazol-2-yl)phenyl]prop-2-enamide] was 1.53%. As to `C=CC(=O)Nc1ccc(CN2CCC(C)CC2)cc1` [1-D21, N-{4-[(4-methylpiperidin-1-yl)methyl]phenyl}prop-2-enamide], the viability at 48 h, 25 µM worked out at 157%. Consider `C=CC(=O)N1CC2(CCOCC2)C1c1ccco1` (centres unmarked) [1-D22, 1-[1-(furan-2-yl)-7-oxa-2-azaspiro[3.5]nonan-2-yl]prop-2-en-1-one], for which the viability at 48 h, 25 µM was determined as 72.1%. Regarding `C=CC(=O)N(C)C1CS(=O)(=O)C1` [1-E03, N-(1,1-dioxo-1lambda6-thietan-3-yl)-N-methylprop-2-enamide], the viability at 48 h, 25 µM is 86.3%. For the compound `C=CC(=O)Nc1cc(C(C)(C)C)nn1-c1ncccn1` [1-E04, N-[3-tert-butyl-1-(pyrimidin-2-yl)-1H-pyrazol-5-yl]prop-2-enamide], the viability at 48 h, 25 µM was determined as 88.8%.

In the case of `C=CC(=O)Nc1cnn(CCF)c1` [1-E05, N-[1-(2-fluoroethyl)-1H-pyrazol-4-yl]prop-2-enamide], the viability at 48 h, 25 µM was found to be 78.3%. With `C=CC(=O)N1CCC(C(=O)Nc2cc(Cl)ccc2SCC)CC1` [1-E06, N-[5-chloro-2-(ethylsulfanyl)phenyl]-1-(prop-2-enoyl)piperidine-4-carboxamide], the viability at 48 h, 25 µM turned out to be 111%. `C=CC(=O)NCc1cccc2c1OCO2` [1-E07, N-[(1,3-dioxaindan-4-yl)methyl]prop-2-enamide]: the viability at 48 h, 25 µM was 69.1%. On to `C=CC(=O)NC1C(=O)OCC1(C)C` (centres unmarked) [1-E08, N-(4,4-dimethyl-2-oxooxolan-3-yl)prop-2-enamide], for which the viability at 48 h, 25 µM was 83.7%. Turning to `C=CC(=O)N1CCC(C(=O)N2CCc3ccccc32)CC1` [1-E09, 1-[4-(2,3-dihydro-1H-indole-1-carbonyl)piperidin-1-yl]prop-2-en-1-one], the viability at 48 h, 25 µM amounted to 68%. For `C=CC(=O)NC1CCC(F)(F)CC1F` (centres unmarked) [1-E11, N-(2,4,4-trifluorocyclohexyl)prop-2-enamide], the viability at 48 h, 25 µM worked out at 69.4%.

On to `C=CC(=O)NC12CC3CC(CC(C3)C1)C2` [1-E12, N-(adamantan-1-yl)prop-2-enamide], for which the viability at 48 h, 25 µM was found to be 56.7%. Consider `C=CC(=O)Nc1c(C)cccc1SCC(=O)N(C)C` [1-E13, N-(2-{[(dimethylcarbamoyl)methyl]sulfanyl}-6-methylphenyl)prop-2-enamide], for which the viability at 48 h, 25 µM came to 78.8%. `C=CC(=O)N1CCC(C(=O)NCc2ccoc2C)CC1` [1-E14, N-[(2-methylfuran-3-yl)methyl]-1-(prop-2-enoyl)piperidine-4-carboxamide]: the viability at 48 h, 25 µM amounted to 85.4%.
